According to US20230390373A1, “A LIVE STRAIN OF STAPHYLOCOCCUS AUREUS AND USES THEREOF” (priority 2020, published 2023):
Entries after “also recorded” stand apart in the source; their conditions may differ. Residues, ends and D or L forms follow the SMILES beside them. *: point of attachment. Cbz = O=C(OCc1ccccc1)*; CH2F = FC*

How the values were obtained:
[1] = test system: mouse bone marrow derived dendritic cells (BMDC); assay: IL-1β release / inflammasome activation in infected BMDC; assay type: cell-based; details: MOI=20, 6 hours; for IL-1β production/release in S. aureus infected BMDC: MCC950 10 μM, Cytochalasin D 5 μM, ZM241385 10 μM
Experimental: (§1) Bone marrow cells extracted from femur of 8-12 weeks old female BALB/c mice were culture in RPMI-1640 medium supplemented with L-glutamine, 10% heat inactivated-FBS, 1×penicillin/streptomycin, 10 mM HEPES, 50 μM-β mercaptoethanol, 20 ng/ml mGM-CSF (PeproTech) for up to 7 days differentiation.
One day before bacterial infection experiments, S. aureus strains were inoculated and cultured with BHI broth for overnight. Next day, overnight culture of bacteria strains were sub-cultured in fresh BHI broth at a dilution of 1:100 and grown at 37° C. Following 3 hours of culturing, S. aureus were harvested and washed for two to three times in cold PBS by centrifugation. Finally, S. aureus strains were diluted with desired volume of PBS, yielding an OD600 of 0.5 (1×10^8 CFU/ml), and further centrifuged and resuspended at desired bacterial concentration. The number of bacteria was determined by serial dilution and colony formation on BHI agar plates. Mammalian cells were plated in 24-well plates at a number of 4×10^5 per well and infected with S. aureus strains in antibiotic free medium at the indicated MOI.
Culture supernatants of relevant cells were collected and centrifuged at 13000 rpm for 4 min to get rid of cell debris and bacteria. Levels of LDH in culture supernatants were measured by CytoTox 96 Non-Radioactive Cytotoxicity Assay kit (Promega). Cell viability was measured by the CellTiter Glo Luminescent Cell Viability Assay (Promega). ELISA assay was conducted according manufactures' instructions.
For detection of cleaved form of caspase-1, cell culture supernatants were precipitated by methanol-chloroform method. Briefly, supernatant was mixed with an equal volume of methanol and 0.25 volumes of chloroform, vortexed and centrifuge for 15 min at 20000 g. The upper phase was discarded and the interphase was mixed with methanol. After centrifugation for 5 min at 20000 g, the pellet was resuspended in 2×SDS-PAGE sample buffer and boiled for 5 min at 100° C. Protein samples were separated by 15% SDS-PAGE gels and were transferred onto PVDF membranes. Total cell lysates lysed by RIPA buffer (50 mM Tris-Cl, pH 7.4, 150 mM NaCl, 1% Triton X-100, 0.1% SDS, 1% sodium deoxycholate and 0.5 mM EDTA) supplemented with 1× protease inhibitor cocktail (Roche) were boiled for 5 min at 100° C. Lysate aliquots were separated by SDS-PAGE gels and transferred onto PVDF membranes. Blots were probed with primary antibody: rabbit anti-caspase-1 (1:1000 dilution, 179515 from Abcam, USA), mouse anti-β actin (1:5000 dilution, A5316 from Sigma). Anti-rabbit or mouse antibodies conjugated to HRP were used as secondary reagents.

[2] = test system: BALB/c mice; assay: Th17 response in inhibitor-pretreated mice infected with wild type S. aureus; assay type: in vivo; details: splenocytes re-stimulated MOI=5, 4 days
Experimental: Protocol for harvest and calculation of wild type and variant S. aureus strains was the same as described above. To induce systemic blood infection model of S. aureus in FIG. 1, 200 ul of bacterial suspension (1×10^7 CFU) was administered intravenously into naïve 6-wk-old female BALB/c mice. To establish re-infection model in FIG. 5, mice were intraperitoneally infected with WT S. aureus (USA300), adsA mutant strain or WT S. aureus (USA300)/adsA mutant strain (4×10^7 CFU) for a total of 3 times at 7 days interval. After 14 days convalescent period, mice were re-challenged with lethal dose of WT USA300 S. aureus (4×10^7 CFU) or sublethal dose of WT USA300 S. aureus (2×10^7 CFU). Upon bacterial infection, health conditions of mice were frequently monitored in compliance with humane end points (HEP) form. To measure staphylococcal burden in blood, after 2 h of i.v. infection, mice were anaesthetized by intraperitoneal injection of 80-120 mg ketamine and 3-6 mg xylazine per kilogram of body weight and blood was collected via tail vein. Blood samples were incubated on ice in 0.5% saponin/PBS for lysis of host cells. Later on, serial dilutions were performed on BHI agar plates for colony formation. To enumerate bacteria in tissues, mice were euthanized by CO2 inhalation, organs including lungs, spleens and kidneys were harvested and homogenized in 1% Triton X-100/PBS. Aliquots of homogenates were serially diluted and spread on BHI agar plates for colony formation. For histopathology, kidneys were incubated in 4% paraformaldehyde (PFA) at room temperature for 24 h. Tissues were embedded in paraffin, thin sectioned, stained with hematoxylin-eosin, and examined by microscopy.
Animals were sacrificed at indicated time points in re-infection model. Spleens were harvested and grinded for cells suspension. After centrifugation, splenocytes were experienced red blood cell lysing, washes and filtering, and single cells suspension was cultured in RPMI-1640 media supplemented with 10% FBS, 100 U/ml penicillin and […]. […]

[3] = test system: HMDM; assay: Cell viability assay of infected HMDM; assay type: cell-based, human; details: MOI=100, 8 hours, Z-VADFMK 25 μM, VX765 20 μM, NSA 5 μM
Experimental: Human peripheral blood mononuclear cells (PBMC) were isolated from human buffy coat (provided by Department of Microbiology, The University of Hong Kong, Li Ka Shing Faculty of Medicine) by Ficoll-Paque gradient protocol. In brief, 30 mL of 1:1 PBS diluted buffy coat from healthy donors were layered on Ficoll-Paque Plus (GE Healthcare, Life Sciences) and centrifuged at 450×g for 30 min at room temperature. Separated layers of PBMC were collected and then washed 2 times with RPMI-1640 medium. After washing, the cells were resuspended in 4 mL red blood cell lysing buffer (Biolegend, RBC Lysis Buffer) and incubated for 5 min at room temperature. Following two subsequent washes, the cell pellet was resuspended in RPMI-1640 media supplemented with 10% FBS, 100 U/ml penicillin and 0.1 mg/ml streptomycin for further infection experiments. To differentiate human monocytes-derived macrophages (HMDM), isolated PBMC were seeded on poly-L-lysine coated coverslips in 24 well plate and cultured in RPMI-1640 media supplemented with L-glutamine, 10% FBS, 1×penicillin/streptomycin, 10 mM HEPES, 50 ng/mL hGM-CSF (PeproTech) for up to 7 days differentiation.
One day before bacterial infection experiments, S. aureus strains were inoculated and cultured with BHI broth for overnight. Next day, overnight culture of bacteria strains were sub-cultured in fresh BHI broth at a dilution of 1:100 and grown at 37° C. Following 3 hours of culturing, S. aureus were harvested and washed for two to three times in cold PBS by centrifugation. […] The number of bacteria was determined by serial dilution and colony formation on BHI agar plates. […]
Culture supernatants of relevant cells were collected and centrifuged at 13000 rpm for 4 min to get rid of cell debris and bacteria. Levels of LDH in culture supernatants were measured by CytoTox 96 Non-Radioactive Cytotoxicity Assay kit (Promega). Cell viability was measured by the CellTiter Glo Luminescent Cell Viability Assay (Promega). […]

[4] = test system: NLRP3; assay: NLRP3 expression in BMDC (qPCR, immunoblot); assay type: cell-based, mouse; details: 4 hours
Experimental: as §1
For detection of cleaved form of caspase-1, cell culture supernatants were precipitated by methanol-chloroform method. Briefly, supernatant was mixed with an equal volume of methanol and 0.25 volumes of chloroform, vortexed and centrifuge for 15 min at 20000 g. The upper phase was discarded and the interphase was mixed with methanol. After centrifugation for 5 min at 20000 g, the pellet was resuspended in 2×SDS-PAGE sample buffer and boiled for 5 min at 100° C. Protein samples were separated by 15% SDS-PAGE gels and were transferred onto PVDF membranes. […]
Total RNA was extracted from cells using TRIzol Reagent (Invitrogen) and 1 μg total RNA was used for reverse transcription (Takara) according to manufactures' instructions. The cDNA was then used for quantitative RT-PCR to analyze relevant mRNA expression using Applied Biosystems StepOnePlus™ Real-Time PCR System and SYBR Premix Ex Taq kit (Takara) according to the manufacturer's instruction. The data were normalized to GAPDH and fold change in gene expression was calculated by comparative CT method (2^−ΔΔCT).

## C=C1[C@@H](C)[C@H]2[C@H](Cc3ccccc3)NC(=O)[C@]23[C@H](OC(C)=O)/C=C/[C@@](C)(O)C(=O)[C@@H](C)C/C=C/[C@H]3[C@@H]1O [Cytochalasin D]
[1]
  IL-1β production/release in S. aureus infected BMDC: nearly suppressed IL-1β production
[1]; listed as cytochalasin D
  IL-1β production/release in S. aureus infected BMDC: had little IL-1β production

## CC(C)(O)c1coc(S(=O)(=O)NC(=O)Nc2c3c(cc4c2CCC4)CCC3)c1 [MCC950]
[1]
  IL-1β production/release in S. aureus infected BMDC: largely dampen IL-1β production; also recorded: almost prevented the release of IL-1β; also recorded: had little IL-1β production
[2]
  Th17 response / IL-17A production vs vehicle control: decreased IL-17A production

## CCO[C@@H]1OC(=O)C[C@@H]1NC(=O)[C@@H]1CCCN1C(=O)[C@@H](NC(=O)c1ccc(N)c(Cl)c1)C(C)(C)C [VX765]
[2]
  Th17 response / IL-17A production vs vehicle control: decreased IL-17A production
[3]
  effect on S. aureus / adsA mutant-induced cell death: dramatically decrease adsA mutant-induced cell death

## COC(=O)C[C@H](NC(=O)[C@H](C)NC(=O)[C@@H](NC(=O)OCc1ccccc1)C(C)C)C(=O)CF [Z-VAD-FMK] (Cbz-Val-Ala-Asp(OMe)-CH2F)
[3]
  effect on S. aureus / adsA mutant-induced cell death: dramatically decrease adsA mutant-induced cell death

## Nc1nc(NCCc2ccc(O)cc2)nc2nc(-c3ccco3)nn12 [ZM241385]
[1]
  IL-1β production/release in S. aureus infected BMDC: improved IL-1β production

## Nc1ncnc2c1ncn2[C@@H]1O[C@H](CO)[C@@H](O)[C@H]1O [adenosine, Adenosine]
[4]; BMDC activated by adsA mutant S. aureus or Pam3CSK4 / LPS (100 ng/ml), adenosine 100 μM
  expression level of NLRP3 (qPCR): decreased the expression level of NLRP3
[4]; BMDC pre-treated with a series of dose of adenosine, LPS 100 ng/ml
  NLRP3 expression at protein level: inhibited NLRP3 expression at protein level in a dose-dependent manner
[1]; pretreated with adenosine 100 μM
  inflammasome activation (IL-1β release and immunoblot) in BMDC infected with adsA mutant: impaired inflammasome activation

## Cn1c(=O)c2c(ncn2C)n(C)c1=O [caffeine, Caffeine]
[2]
  Th17 response / IL-17A production vs vehicle control: did not have any influence on Th17 immunity

## COc1nccnc1NS(=O)(=O)c1ccc(NC(=O)/C=C/c2ccc([N+](=O)[O-])s2)cc1 [necrosulfonamide, Necrosulfonamide]
[3]
  effect on S. aureus / adsA mutant-induced cell death: did not have apparent effect on S. aureus induced cytotoxicity
